Assay results from patent US8193350B2, “Fluorescent compound and labeling agent comprising the same” (Keio University, priority 2006, dated 2012).
“And” between values parts separate entries of the source, which are not always exact repeats. Equal values may be shown once. Read-outs that look alike come from different tables or passages of the source. Marks after values point to notes of the source that are not given here.

Legend:
[1] = Light fastness test: change of absorbance with time under the light of daily life; type: physicochemical; settings: acetonitrile
Method: An experiment testing the light fastness of fluorescent compound 8 and Cy7 (trade name, 1-[3-(4-monomethoxytrityloxy)propyl]-1′-[3-[(2-cyanoethyl)-(N,N-diisopropyl)phosphoramidityl]propyl]-3,3,3′,3′-tetramethylindotricarbocyanine chloride) was carried out.
Fluorescent compound 8 and Cy7 (trade name) were respectively dissolved in acetonitrile to a concentration attaining an absorbance of 0.1. The solutions were left to stand under the same conditions (more specifically, under the light of daily life without light shading, and the absorbance was measured every day (or every other day). The change with time of the measured absorbance was graphed taking the relative absorbance (taking the absorbance before leaving to stand as 100%) along the ordinate and taking the days along the abscissa.

[2] = cited from earlier work
[3] = Optical properties: absorption and fluorescence emission spectra; type: physicochemical
[4] = CHCl3, reference N,N′-bis(1-hexylheptyl)-perylene dye (Φ=1.00 in CH2Cl2)
[5] = CHCl3, reference 3,3′-diethyl-dithiazylcarbocyanine, excitation 650 nm, containing error of 10%
[6] = MeOH, reference 3,3′-diethyl-dithiazylcarbocyanine, excitation 650 nm, containing error of 10%

Row | Compound | fwhm (full width at half maximum height) ([3]; CHCl3) | λabs (maximum absorption wavelength) ([3]; CHCl3) | λflu (maximum fluorescence wavelength) ([3]; CHCl3) | shift of maximum absorption wavelength to longer wavelength compared with boron dipyrromethene (R1=R3=R5=R7=Me) [3] | shift of maximum absorption wavelength to longer wavelength compared with fluorescent compound 2 [3] | fwhm (full width at half maximum height) ([3]; MeOH) | λabs (maximum absorption wavelength) ([3]; MeOH) | λflu (maximum fluorescence wavelength) ([3]; MeOH) | further results
1 | COc1ccc(C(OCCC[N+]2=C(C=CC=CC=CC=C3N(CCCOP(OCCC#N)N(C(C)C)C(C)C)c4ccccc4C3(C)C)C(C)(C)c3ccccc32)(c2ccccc2)c2ccccc2)cc1.[Cl-] (centres unmarked) [Cy7, 1-[3-(4-monomethoxytrityloxy)propyl]-1′-[3-[(2-cyanoethyl)-(N,N-diisopropyl)phosphoramidityl]propyl]-3,3,3′,3′-tetramethylindotricarbocyanine chloride] | – | – | – | – | – | – | – | – | light fastness (in words) ([1]; light of daily life, 1 week): very poor; relative absorbance retained (absorbance before leaving to stand as 100%) ([1]; under the light of daily life without light shading, after 1 week): ≤ 10%
2 | CCN1C(=CC=Cc2sc3ccccc3[n+]2CC)Sc2ccccc21 [3,3′-diethyl-dithiazylcarbocyanine] | – | – | – | – | – | – | – | – | Φ of reference dye ([2]; in MeOH): 0.33
3 | CCCCC(CCCC)Oc1cc(C)c(C2=C3C=c4sc(C)cc4=[N+]3[B-](F)(F)n3c2cc2sc(C)cc23)c(C)c1 [Fluorescent Compound 3] | 20 nm | 586 nm | 596 nm | – | – | – | – | – | ε (molar extinction coefficient) ([3]; CHCl3): 170,000 M^−1cm^−1; Φ (fluorescence quantum yield) [3, 4]: 0.39
4 | COc1ccc(OC)c(-c2cc3c(o2)=CC2=Cc4cc5oc(-c6cc(OC)ccc6OC)cc5n4[B-](F)(F)[N+]=32)c1 [Fluorescent Compound 7] | 24 nm | 688 nm and 678 nm | 688 nm | about 170 nm | about 90 nm | 28 nm | 662 nm | 674 nm | Φ (fluorescence quantum yield) [3, 5]: 0.51; Φ (fluorescence quantum yield) [3, 6]: 0.54
5 | COc1ccc(-c2cc3c(o2)=CC2=Cc4cc5oc(-c6ccc(OC)cc6)cc5n4[B-](F)(F)[N+]=32)cc1 [Fluorescent Compound 6] | 24 nm | 683 nm and 673 nm | 683 nm | about 170 nm | about 90 nm | 26 nm | 659 nm | 672 nm | ε (molar extinction coefficient) ([3]; CHCl3, containing error of 10% (Table 4)): 240,000 M^−1cm^−1; Φ (fluorescence quantum yield) [3, 5]: 0.69; Φ (fluorescence quantum yield) [3, 6]: 0.58; fwhm (full width at half maximum height) ([3]; THF): 24 nm; λabs (maximum absorption wavelength) ([3]; THF): 665 nm; λflu (maximum fluorescence wavelength) ([3]; THF): 674 nm; Φ (fluorescence quantum yield) ([3]; THF, reference 3,3′-diethyl-dithiazylcarbocyanine, excitation 650 nm, containing error of 10%): 0.63
6 | 1-[3-(4-monomethoxytrityloxy)propyl]-1′-[3-[(2-cyanoethyl)-(N,N-diisopropyl)phosphoramidityl]propyl]-3,3,3′,3′-tetramethylindodicarbocyanine chloride [Cy5, reference compound] | – | – | – | – | – | 29 nm | 648 nm | 670 nm | ε (molar extinction coefficient) ([3]; MeOH): 250,000 M^−1cm^−1; Φ (fluorescence quantum yield) ([2]; the value in PBS obtained from Amersham Biosciences): 0.27^a
7 | CCCCC(CCCC)Oc1cc(C)c(C2=C3C=c4oc(-c5ccc(OC)cc5)cc4=[N+]3[B-](F)(F)n3c2cc2oc(-c4ccc(OC)cc4)cc23)c(C)c1 [Fluorescent Compound 5] | 28 nm | 673 nm | 685 nm | about 170 nm | about 90 nm | 29 nm | 664 nm | 679 nm | ε (molar extinction coefficient) ([3]; CHCl3): 190,000 M^−1cm^−1; Φ (fluorescence quantum yield) [3, 4]: 0.68; ε (molar extinction coefficient) ([3]; MeOH): 200,000 M^−1cm^−1; Φ (fluorescence quantum yield) ([3]; MeOH, reference N,N′-bis(1-hexylheptyl)-perylene dye (Φ=1.00 in CH2Cl2)): 0.63; fwhm (full width at half maximum height) ([3]; THF): 27 nm; ε (molar extinction coefficient) ([3]; THF): 190,000 M^−1cm^−1; λabs (maximum absorption wavelength) ([3]; THF): 669 nm; λflu (maximum fluorescence wavelength) ([3]; THF): 680 nm; Φ (fluorescence quantum yield) ([3]; THF, reference N,N′-bis(1-hexylheptyl)-perylene dye (Φ=1.00 in CH2Cl2)): 0.67; fwhm, summary in text of the values in Table 1 ([3]; all solvents of Table 1): about 30 nm
